In patent US20070202116A1, “Treatment of micro-organism infection” (priority 2001, published 2007):
Like-named read-outs stand apart in the source and are kept apart here.

What was measured:
[1] = tested on: EMRSA strains; assay: MIC of vancomycin or flucloxacillin with and without Aurograb (Table 3a); assay type: cell-based, S. aureus; conditions: Staphylococcus aureus
Experimental: (§1) Strains of MRSA were grown overnight in nutrient broth and diluted to give an inoculum of 1×10^3 cells per mL. […] Cultures were incubated for a further 2 days. The minimum growth-inhibitory concentration (MIC) is defined as the […] concentration of antibiotic at which no bacterial growth occurs and is determined by spectrophotometric evaluation of the lack of turbidity (growth) in culture. MICs were determined in the presence of exogenous Aurograb or in the presence of Aurograb formulation buffer (negative control).
The experiments were also performed using flucloxacillin instead of vancomycin to investigate how the efficacy of penicillin-type […] was affected by Aurograb.

[2] = tested on: MRSA strains (VISA and parent EMRSA-15); assay: MIC of vancomycin in the presence of Aurograb (Table 3); assay type: cell-based, S. aureus; conditions: Staphylococcus aureus
Experimental: as §1

Compound CN[C@H](CC(C)C)C(=O)N[C@H]1C(=O)N[C@@H](CC(N)=O)C(=O)N[C@H]2C(=O)N[C@H]3C(=O)N[C@H](C(=O)N[C@H](C(=O)O)c4cc(O)cc(O)c4-c4cc3ccc4O)[C@H](O)c3ccc(c(Cl)c3)Oc3cc2cc(c3O[C@@H]2O[C@H](CO)[C@@H](O)[C@H](O)[C@H]2O[C@H]2C[C@](C)(N)[C@H](O)[C@H](C)O2)Oc2ccc(cc2Cl)[C@H]1O [Vancomycin, vancomycin] has an MIC ([1]; read-out: MIC to vancomycin + 100 μg/ml Aurograb, EMRSA strain 1, + 100 μg/ml Aurograb) of 0.03 µg/mL, an MIC ([1]; read-out: MIC to vancomycin + 100 μg/ml Aurograb, EMRSA strain 2, + 100 μg/ml Aurograb) of 0.03 µg/mL and an MIC ([1]; read-out: MIC to vancomycin + 100 μg/ml Aurograb, EMRSA strain 3, + 100 μg/ml Aurograb) of 0.03 µg/mL. For the same compound, the MIC ([1]; read-out: MIC to vancomycin + 100 μg/ml Aurograb, EMRSA strain 4, + 100 μg/ml Aurograb) was 0.03 µg/mL, the MIC ([1]; read-out: MIC to vancomycin + 100 μg/ml Aurograb, EMRSA strain 5, + 100 μg/ml Aurograb) was 0.03 µg/mL and the MIC ([1]; read-out: MIC to vancomycin + 100 μg/ml Aurograb, EMRSA strain 6, + 100 μg/ml Aurograb) was 0.0125 µg/mL. For the same compound, the MIC ([1]; read-out: MIC to vancomycin + 100 μg/ml Aurograb, EMRSA strain 7, + 100 μg/ml Aurograb) was 0.03 µg/mL, the MIC ([1]; read-out: MIC to vancomycin + 100 μg/ml Aurograb, EMRSA strain 8, + 100 μg/ml Aurograb) was 0.0125 µg/mL and the MIC ([1]; read-out: MIC to vancomycin + 100 μg/ml Aurograb, EMRSA strain 9, + 100 μg/ml Aurograb) was 0.0125 µg/mL. It also gave an MIC ([1]; read-out: MIC to vancomycin + 100 μg/ml Aurograb, EMRSA strain 10, + 100 μg/ml Aurograb) of 0.03 µg/mL, an MIC ([1]; read-out: MIC to vancomycin + 100 μg/ml Aurograb, EMRSA strain 11, + 100 μg/ml Aurograb) of 0.03 µg/mL and an MIC ([1]; read-out: MIC to vancomycin + 100 μg/ml Aurograb, EMRSA strain 12, + 100 μg/ml Aurograb) of 0.03 µg/mL. It also gave an MIC ([1]; read-out: MIC to vancomycin + 100 μg/ml Aurograb, EMRSA strain 13, + 100 μg/ml Aurograb) of 0.03 µg/mL, an MIC ([1]; read-out: MIC to vancomycin + 100 μg/ml Aurograb, EMRSA strain 14, + 100 μg/ml Aurograb) of 0.03 µg/mL and an MIC ([1]; read-out: MIC to vancomycin + 100 μg/ml Aurograb, EMRSA strain 15, + 100 μg/ml Aurograb) of 0.03 µg/mL. It also gave an MIC ([1]; read-out: MIC to vancomycin + 100 μg/ml Aurograb, EMRSA strain 16, + 100 μg/ml Aurograb) of 0.03 µg/mL, an MIC ([1]; read-out: MIC to vancomycin, EMRSA strain 1) of 0.5 µg/mL and an MIC ([1]; read-out: MIC to vancomycin, EMRSA strain 2) of 0.5 µg/mL. It also gave an MIC ([1]; read-out: MIC to vancomycin, EMRSA strain 3) of 0.5 µg/mL, an MIC ([1]; read-out: MIC to vancomycin, EMRSA strain 4) of 0.5 µg/mL and an MIC ([1]; read-out: MIC to vancomycin, EMRSA strain 5) of 0.5 µg/mL. The MIC ([1]; read-out: MIC to vancomycin, EMRSA strain 6) was 0.5 µg/mL, the MIC ([1]; read-out: MIC to vancomycin, EMRSA strain 7) was 0.5 µg/mL and the MIC ([1]; read-out: MIC to vancomycin, EMRSA strain 8) was 0.5 µg/mL. For the same compound, the MIC ([1]; read-out: MIC to vancomycin, EMRSA strain 9) was 0.5 µg/mL, the MIC ([1]; read-out: MIC to vancomycin, EMRSA strain 10) was 0.5 µg/mL and the MIC ([1]; read-out: MIC to vancomycin, EMRSA strain 11) was 0.5 µg/mL. For the same compound, the MIC ([1]; read-out: MIC to vancomycin, EMRSA strain 12) was 0.5 µg/mL, the MIC ([1]; read-out: MIC to vancomycin, EMRSA strain 13) was 0.5 µg/mL and the MIC ([1]; read-out: MIC to vancomycin, EMRSA strain 14) was 0.25 µg/mL. For the same compound, the MIC ([1]; read-out: MIC to vancomycin, EMRSA strain 15) was 0.5 µg/mL, the MIC ([1]; read-out: MIC to vancomycin, EMRSA strain 16) was 0.5 µg/mL and the MIC ([2]; read-out: MIC to Vancomycin in the presence of Aurograb, Parent EMRSA-15, Aurograb 0 μg/ml) was 1 µg/mL. The MIC ([2]; read-out: MIC to Vancomycin in the presence of Aurograb, Parent EMRSA-15, Aurograb 80 μg/ml) was 0.25 µg/mL, the MIC ([2]; read-out: MIC to Vancomycin in the presence of Aurograb, Parent EMRSA-15, Aurograb 125 μg/ml) was < 0.125 µg/mL and the MIC ([2]; read-out: MIC to Vancomycin in the presence of Aurograb, VISA EMRSA-1, Aurograb 0 μg/ml) was 8 µg/mL. For the same compound, the MIC ([2]; read-out: MIC to Vancomycin in the presence of Aurograb, VISA EMRSA-1, Aurograb 60 μg/ml) was 4 µg/mL, the MIC ([2]; read-out: MIC to Vancomycin in the presence of Aurograb, VISA EMRSA-1, Aurograb 80 μg/ml) was 2 µg/mL and the MIC ([2]; read-out: MIC to Vancomycin in the presence of Aurograb, VISA EMRSA-1, Aurograb 125 μg/ml) was < 0.125 µg/mL. It also gave an MIC ([2]; read-out: MIC to Vancomycin in the presence of Aurograb, VISA EMRSA-2, Aurograb 0 μg/ml) of 4 µg/mL, an MIC ([2]; read-out: MIC to Vancomycin in the presence of Aurograb, VISA EMRSA-2, Aurograb 60 μg/ml) of 0.5 µg/mL and an MIC ([2]; read-out: MIC to Vancomycin in the presence of Aurograb, VISA EMRSA-2, Aurograb 80 μg/ml) of 1 µg/mL. The MIC ([2]; read-out: MIC to Vancomycin in the presence of Aurograb, VISA EMRSA-2, Aurograb 125 μg/ml) was < 0.125 µg/mL, the MIC ([2]; read-out: MIC to Vancomycin in the presence of Aurograb, VISA EMRSA-8, Aurograb 0 μg/ml) was 8 µg/mL and the MIC ([2]; read-out: MIC to Vancomycin in the presence of Aurograb, VISA EMRSA-8, Aurograb 60 μg/ml) was 2 µg/mL. For the same compound, the MIC ([2]; read-out: MIC to Vancomycin in the presence of Aurograb, VISA EMRSA-8, Aurograb 80 μg/ml) was 1 µg/mL, the MIC ([2]; read-out: MIC to Vancomycin in the presence of Aurograb, VISA EMRSA-8, Aurograb 125 μg/ml) was < 0.125 µg/mL and the MIC ([2]; read-out: MIC to Vancomycin in the presence of Aurograb, VISA EMRSA-11, Aurograb 0 μg/ml) was 4 µg/mL. For the same compound, the MIC ([2]; read-out: MIC to Vancomycin in the presence of Aurograb, VISA EMRSA-11, Aurograb 60 μg/ml) was 4 µg/mL, the MIC ([2]; read-out: MIC to Vancomycin in the presence of Aurograb, VISA EMRSA-11, Aurograb 80 μg/ml) was 1 µg/mL and the MIC ([2]; read-out: MIC to Vancomycin in the presence of Aurograb, VISA EMRSA-11, Aurograb 125 μg/ml) was < 0.125 µg/mL. The MIC ([2]; read-out: MIC to Vancomycin in the presence of Aurograb, VISA EMRSA-12, Aurograb 0 μg/ml) was 8 µg/mL, the MIC ([2]; read-out: MIC to Vancomycin in the presence of Aurograb, VISA EMRSA-12, Aurograb 60 μg/ml) was 4 µg/mL and the MIC ([2]; read-out: MIC to Vancomycin in the presence of Aurograb, VISA EMRSA-12, Aurograb 80 μg/ml) was 2 µg/mL. The MIC ([2]; read-out: MIC to Vancomycin in the presence of Aurograb, VISA EMRSA-12, Aurograb 125 μg/ml) was < 0.125 µg/mL, the MIC ([2]; read-out: MIC to Vancomycin in the presence of Aurograb, VISA EMRSA-15, Aurograb 0 μg/ml) was 8 µg/mL and the MIC ([2]; read-out: MIC to Vancomycin in the presence of Aurograb, VISA EMRSA-15, Aurograb 60 μg/ml) was 4 µg/mL. The MIC ([2]; read-out: MIC to Vancomycin in the presence of Aurograb, VISA EMRSA-15, Aurograb 80 μg/ml) was 2 µg/mL and the MIC ([2]; read-out: MIC to Vancomycin in the presence of Aurograb, VISA EMRSA-15, Aurograb 125 μg/ml) was < 0.125 µg/mL.
